Laboratory results from US8501166B2, “Pyrimidinyl indole compounds” (Hutchison Medipharma Limited, priority 2010, dated 2013).
Counter-ions that a name gives are not always drawn.

What was measured:
IKKβ = target: T1, IKKβ (Homo sapiens, UniProt O14920); experiment: IKKβ kinase assay (IKKβ-Inhibitor Screening Kit, ELISA); assay type: biochemical; details: IKKβ-Inhibitor Screening Kit (Calbiochem), GST-IκBα substrate
T1 sequence (O14920 1-756): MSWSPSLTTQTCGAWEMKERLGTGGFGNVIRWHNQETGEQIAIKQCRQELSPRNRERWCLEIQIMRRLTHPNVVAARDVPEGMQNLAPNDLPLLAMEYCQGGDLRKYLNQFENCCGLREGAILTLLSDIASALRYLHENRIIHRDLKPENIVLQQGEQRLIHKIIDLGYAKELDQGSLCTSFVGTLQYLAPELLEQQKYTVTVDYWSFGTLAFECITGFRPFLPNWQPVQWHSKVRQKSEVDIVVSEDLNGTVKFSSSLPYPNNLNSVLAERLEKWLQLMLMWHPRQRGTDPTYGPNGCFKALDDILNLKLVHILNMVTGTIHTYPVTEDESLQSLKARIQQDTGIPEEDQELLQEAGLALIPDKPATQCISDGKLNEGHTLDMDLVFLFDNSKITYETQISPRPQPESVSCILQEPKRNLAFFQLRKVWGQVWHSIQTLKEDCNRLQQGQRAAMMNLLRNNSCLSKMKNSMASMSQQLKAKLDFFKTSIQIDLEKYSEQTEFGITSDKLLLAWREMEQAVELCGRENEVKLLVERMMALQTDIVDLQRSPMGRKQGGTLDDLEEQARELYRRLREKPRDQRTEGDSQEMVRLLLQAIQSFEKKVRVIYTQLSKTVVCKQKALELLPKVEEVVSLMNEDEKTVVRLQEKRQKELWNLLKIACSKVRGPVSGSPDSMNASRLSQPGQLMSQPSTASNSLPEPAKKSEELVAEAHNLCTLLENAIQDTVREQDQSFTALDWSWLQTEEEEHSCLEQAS
Protocol: The IKKβ kinase assay is used to assess the effect of a compound of the present invention on the enzymatic activity of IKKβ kinase. The IKKβ kinase assay is performed in vitro using an IKKβ-Inhibitor Screening Kit (Calbiochem., Cat.No. CBA044). All reactions (50 μL) are started by adding 10 μL of kinase buffer (kit component, No. JA9130), 10 μL of GST-IKBa substrate (IKKb substrate, kit component, No. JA9127), 10 μL of IKKβ (2.5 ng/well, kit component, No. 481404), 10 μL of the test compound (DMSO solution) or H2O, and 10 μL of ATP/MgCl2 (kit component, No. JA7914) and then incubating at 30° C. for 30 min. The contents of the wells are then discarded. Each well is washed 3 times with 200 μL 1× wash buffer (kit component, NO. JA1617, 1:20 dilution). 100 μL of anti-phospho IκBα (Ser^32/Ser^36) antibody conjugate (kit component, No. JA9126) is added to each well and incubated at room temperature for 1 h. Then the wells are washed 3 times with 1× wash buffer (kit component, NO. JA1617, 1:20 dilution), […] and 100 μL HRP-conjugate (kit component, No. JA7643) is added to each well and incubated at room temperature for 1 h. Then the wells are washed 3 times with 200 μL 1× wash buffer (kit component, NO. JA1617, 1:20 dilution) and 100 μL TMB substrate conjugate (kit component, No. JA1608) is added to each well. The plate is incubated at room temperature until the color changes. […]

[1] = tested on: LPS-induced plasma TNFα production; experiment: LPS-induced cytokine production in rat plasma; assay type: in vivo, Lewis rats; details: oral 1 h before LPS 0.4 mg/kg i.p.
Protocol: Alternately, the compound is screened for its ability to inhibit the LPS-induced cytokine production in rat plasma according to the method reported in the literature (Ziegelbauer K, Gantner F, Lukacs N W, et al. Br J. Pharmacol. 2005,145(2):178-92). Briefly, Lewis rats (male, body weight 140 g-180 g) are used in the experiments. Animals (8/group) are given 1 to 100 mg/kg of the testing compound (suspension in 35% solutol & 60% PEG400 & 5% PG) or vehicle by oral gavage at 1 h prior to intraperitoneal administration of LPS 0.4 mg/kg. Ninety minutes after the intraperitoneal administration of LPS, blood is collected in heparin anticoagulated tubes to measure TNFα using R&D System ELISA Kit based on the general Kit protocols. The plasma sample is diluted 100 fold with the dilution buffer and 50 μL of diluted sample is used in each measurement. The plate is read on a SPECTRAMAX® M2e Plus Plate Reader and TNFα levels are analyzed based on the standard curve. The drug levels in plasma are measured with LC-MS-MS. […] Alternately, the compound is screened for its ability to inhibit the LPS-induced cytokine production in mouse plasma. Balb/c mice (female, body weight 18-20 g) are used in the experiments. […] The plate is read on a SPECTRMAX® M2e Plus Plate Reader and the data is analyzed using a standard curve.

| Compound | IC50 (IKKβ) [nM] | ED50 [1] [mg/kg] | EC50 ([1]; read-out: EC50, plasma TNFα production (drug level in plasma)) [µg/mL] |
| --- | --- | --- | --- |
| O=C(NC1CC1)c1cccc2[nH]c(-c3nc(N[C@@H]4CCC[C@@H]4O)ncc3Cl)cc12 [Example 1, 2-{5-Chloro-2-[(1R,2S)-2-hydroxycyclopentylamino]pyrimidin-4-yl}-N-cyclopropyl-1H-indole-4-carboxamide hydrochloride] | 15 | – | – |
| Cl.O=C(NC1CC1)c1cccc2[nH]c(-c3nc(N[C@@H]4CCC[C@H]4O)ncc3Cl)cc12 [Example 2, 2-{5-Chloro-2-[(1R,2R)-2-hydroxycyclopentylamino]pyrimidin-4-yl}-N-cyclopropyl-1H-indole-4-carboxamide hydrochloride] | – | 19.8 ± 10.9 | 4.04 ± 1.28 |
